# In patent US10487088B2, “Tricyclic compound serving as immunomodulator” (Chia Tai Tianqing Pharmaceutical Group Co., Ltd., priority 2016, dated 2019):
# What was measured:
# [1] = target: T1, recombinant human IDO1 enzyme (Homo sapiens, UniProt P14902); test: In vitro hIDO1 enzyme activity test (NFK Green fluorescence); format: biochemical; conditions: recombinant human IDO1, L-tryptophan substrate, pH 6.5
# T1 construct: purchased NTRC NTRC-hlDO-10K
# Experimental: The change of NFK production was detected by using the NFK Green™ fluorescent molecule, which is the metabolite of the IDO1 enzyme, and the IC50 value of the compound was used as an index, to evaluate the inhibitory effect of the compound on the recombinant human IDO1 enzyme.
# IDO1 Enzyme Activity Assay Kit, NTRC # NTRC-hlDO-10K;
# The compound was diluted to 1 mM in DMSO, and then diluted 3-fold in duplicate wells, with 10 gradients. 48 μL of 50 mM phosphate buffer (pH 6.5) was transferred to the compound plate via Bravo automated liquid handling platform. 2 μL of the diluted solution of the compound in DMSO was then added and mixed, followed by transferring 10 μL therein to an enzyme reaction plate.
# The IDO1 enzyme was diluted to 20 nM in the reaction buffer (50 mM phosphate buffer pH 6.5, 0.1% Tween-20, 2% glycerol, 20 mM ascorbic acid, 20 μg/mL catalase and 20 μM methylene blue), and 20 μL of the solution was transferred to an enzyme reaction plate and incubated at 23° C. for 30 min. The reaction was started by adding 10 μL of 400 μM L-type tryptophan substrate and incubated at 23° C. for 90 min. 10 μL of NFK Green™ fluorescent dye was added, and the plate was sealed with the sealing film, incubated at 37° C. for 4 h, and then read on Envision Multimode Plate Reader (Ex 400 nm/Em 510 nm).
# The control wells with the IDO1 enzyme but no compound was set as 0% inhibition, and the control wells without the IDO1 enzyme was set as 100% inhibition, and the IC50 value of the compound was calculated by analyzing the data with XLFit 5.
# [2] = target: T2, IDO1 enzyme in Hela cells (Homo sapiens, UniProt P14902); test: hIDO1 cytological activity assay (kynurenine in Hela cells by LC-MS); format: cell-based; conditions: Hela cells induced with 100 ng/mL recombinant human γ-interferon, 20 h, read-out: IC50 hIDO1 Cytoactive
# T2 construct: recombinant human γ-interferon was added at a final concentration of 100 ng/mL to induce IDO1 expression; endogenous in cells; host or cells: Hela cells, induced with recombinant human γ-interferon
# T2 sequence (P14902 whole entry): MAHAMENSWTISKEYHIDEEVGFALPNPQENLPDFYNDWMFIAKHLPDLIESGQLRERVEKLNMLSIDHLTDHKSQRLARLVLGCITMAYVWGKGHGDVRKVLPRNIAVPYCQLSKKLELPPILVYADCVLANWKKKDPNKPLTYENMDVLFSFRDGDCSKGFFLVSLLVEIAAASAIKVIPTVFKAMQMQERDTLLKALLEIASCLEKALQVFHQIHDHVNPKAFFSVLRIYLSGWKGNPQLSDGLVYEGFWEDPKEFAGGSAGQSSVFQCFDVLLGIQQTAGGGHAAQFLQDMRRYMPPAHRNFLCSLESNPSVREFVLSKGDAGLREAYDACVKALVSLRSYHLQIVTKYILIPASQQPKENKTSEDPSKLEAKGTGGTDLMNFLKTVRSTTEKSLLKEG
# Experimental: The change of kynurenine in Hela cells was detected by the LC-MS method, and the IC50 value of the compound was used as an index, to evaluate the inhibitory effect of the compound on IDO1 enzyme.
# A medium, trypsin and DPBS were pre-heated in a 37° C. water bath. The medium for cell culture was sucked out and washed with 10 mL of DPBS; then the pre-heated trypsin was added into the culture flask, and the flask was rotated to allow the trypsin to uniformly cover it, and then placed in a 37° C., 5% CO2 incubator and digested for 1-2 min; in each T150, cells were dispersed with 10-15 mL of medium, centrifuged at 800 rpm for 5 min, and then resuspended in 10 mL of medium; 1 mL of cell suspension was pipetted and the cells were counted with Vi-cell; Hela cells were diluted with medium to 5×10^5/mL, 80 μL of the solution was added to a 96-cell plate, and cultured at 37° C. for 5-6 h in a 5% CO2 incubator.
# The compound was diluted to 1 mM in DMSO, and then diluted 3-fold in duplicate wells, with 9 gradients. 5 μL of the diluted solution of the compound in DMSO was added to the compound plate containing 95 μL of the medium, and mixed, followed by transferring 10 μL of the mixture to a cell plate.
# 10 μL of recombinant human γ-interferon was added at a final concentration of 100 ng/mL to induce IDO1 expression. The cells were incubated at 37° C. for 20 h in a 5% CO2 incubator. 4 μL of 5% (w/v) trichloroacetic acid was added thereto, mixed and incubated at 50° C. for 30 min. After centrifugation at 2400 rpm for 10 min, 40 μL of the supernatant was taken and placed in a 96-well V-bottom plate, and then a precipitant was added in the plate. After mixing, the mixture was centrifuged at 4000 rpm for 10 min. 100 μL of the supernatant was transferred to a new 96-well V-bottom plate. The content of kynurenine was determined by LC-MS.
# The control wells having γ-interferon but no compound was set as 0% inhibition, and the control wells without Hela cell was set as 100% inhibition, and the IC50 value of the compound was calculated by analyzing the data with XLFit 5.
# T1 sequence (P14902 whole entry): as above
IC50 [1] [µM],IC50 [2] [µM],SMILES
0.055,0.0175,"c1cc2c(s1)C(CCC1CCCCC1)n1cncc1-2 (single isomer, unassigned) [Example 9, 8-(2-cyclohexyl)-8H-thieno[3,4]pyrrolo[1,5-a]imidazole]"
> 10,,"c1ccc2c(C3CCC(C4c5sccc5-c5cncn54)CC3)ccnc2c1 (single isomer, unassigned) [Example 93, 5-(4-(quinolin-4-yl)cyclohexyl)-8H-thieno[3′,2′:3,4]pyrrolo[1,2-c]imidazole]"
1.46,,"c1ccc2c(C3CCC(C4c5sccc5-c5cncn54)CC3)ccnc2c1 (single isomer, unassigned) [Example 94, 5-(4-(quinolin-4-yl)cyclohexyl)-8H-thieno[3′,2′:3,4]pyrrolo[1,2-c]imidazole]"
> 10,,"c1ccc2c(C3CCC(C4c5sccc5-c5cncn54)CC3)ccnc2c1 (single isomer, unassigned) [Example 95, 5-(4-(quinolin-4-yl)cyclohexyl)-8H-thieno[3′,2′:3,4]pyrrolo[1,2-c]imidazole]"
> 10,,"O=C(O)C1CCCC(C2c3sccc3-c3cncn32)C1 (single isomer, unassigned) [Example 97, 3-(8H-thieno[3,4]pyrrolo[1,5-a]imidazol-8-yl) cyclohexylcarboxylic acid]"
> 10,,"O=C(O)C1CCCC(C2c3sccc3-c3cncn32)C1 (single isomer, unassigned) [Example 98, 3-(8H-thieno[3,4]pyrrolo[1,5-a]imidazol-8-yl) cyclohexylcarboxylic acid]"
> 10,,"O=C(O)C1CCCC(C2c3sccc3-c3cncn32)C1 (single isomer, unassigned) [Example 99, 3-(8H-thieno[3,4]pyrrolo[1,5-a]imidazol-8-yl) cyclohexylcarboxylic acid]"
6.77,,"O=C(O)C1CCCC(C2c3sccc3-c3cncn32)C1 (single isomer, unassigned) [Example 100, 3-(8H-thieno[3,4]pyrrolo[1,5-a]imidazol-8-yl) cyclohexylcarboxylic acid]"
> 10,,"O=C(O)C1CCCC(C2c3sccc3-c3cncn32)C1 (single isomer, unassigned) [Example 101, 3-(8H-thieno[3,4]pyrrolo[1,5-a]imidazol-8-yl) cyclohexylcarboxylic acid]"
> 10,,"O=C(O)C1CCCC(C2c3sccc3-c3cncn32)C1 (single isomer, unassigned) [Example 102, 3-(8H-thieno[3,4]pyrrolo[1,5-a]imidazol-8-yl) cyclohexylcarboxylic acid]"
> 10,,"O=C(O)C1CCCC(C2c3sccc3-c3cncn32)C1 (single isomer, unassigned) [Example 103, 3-(8H-thieno[3,4]pyrrolo[1,5-a]imidazol-8-yl) cyclohexylcarboxylic acid]"
> 10,,"O=C(O)C1CCCC(C2c3sccc3-c3cncn32)C1 (single isomer, unassigned) [Example 104, 3-(8H-thieno[3,4]pyrrolo[1,5-a]imidazol-8-yl) cyclohexylcarboxylic acid]"
0.183,,"O[C@@H]1CCCC1[C@H]1c2sccc2-c2cncn21 (single isomer, unassigned) [Example 107, (trans)-2-(8H-thieno[3′,2′:3,4]pyrrolo[1,2-c]imidazol-8-yl)cyclopentanol]"
> 10,,"O[C@@H]1CCCC1[C@H]1c2sccc2-c2cncn21 (single isomer, unassigned) [Example 108, (trans)-2-(8H-thieno[3′,2′:3,4]pyrrolo[1,2-c]imidazol-8-yl)cyclopentanol]"
> 10,,"O[C@@H]1CCCC1[C@H]1c2sccc2-c2cncn21 (single isomer, unassigned) [Example 109, (trans)-2-(8H-thieno[3′,2′:3,4]pyrrolo[1,2-c]imidazol-8-yl)cyclopentanol]"
> 10,,"O[C@@H]1CCCC1[C@H]1c2sccc2-c2cncn21 (single isomer, unassigned) [Example 110, (trans)-2-(8H-thieno[3′,2′:3,4]pyrrolo[1,2-c]imidazol-8-yl)cyclopentanol]"

IC50 [1] [µM],IC50 [2] [µM],SMILES
3.51,,"OC1CCC(C2c3sccc3-c3cncn32)CC1 (single isomer, unassigned) [Example 115, 4-(8H-thieno[3,4]pyrrolo[1,5-a]imidazol-8-yl)-cyclohexanol]"
> 10,,"OC1CCC(C2c3sccc3-c3cncn32)CC1 (single isomer, unassigned) [Example 116, 4-(8H-thieno[3,4]pyrrolo[1,5-a]imidazol-8-yl)-cyclohexanol]"
7.29,,"OC1CCC(C2c3sccc3-c3cncn32)CC1 (single isomer, unassigned) [Example 118, 4-(8H-thieno[3,4]pyrrolo[1,5-a]imidazol-8-yl)-cyclohexanol]"
> 10,,"CC(C)(C(O)C1CCCCC1)C1c2sccc2-c2cncn21 (single isomer, unassigned) [Example 120, 1-cyclohexyl-2-methyl-2-(8H-thieno[3,4]pyrrolo[1,5-a]imidazol-8-yl)-propan-1-ol]"
0.585,,"CC(C)(C(O)C1CCCCC1)C1c2sccc2-c2cncn21 (single isomer, unassigned) [Example 121, 1-cyclohexyl-2-methyl-2-(8H-thieno[3,4]pyrrolo[1,5-a]imidazol-8-yl)-propan-1-ol]"
> 10,,"CC(C)(C(O)C1CCCCC1)C1c2sccc2-c2cncn21 (single isomer, unassigned) [Example 122, 1-cyclohexyl-2-methyl-2-(8H-thieno[3,4]pyrrolo[1,5-a]imidazol-8-yl)-propan-1-ol]"
5.98,,"OCCC1c2sccc2-c2cncn21 (stereo not drawn) [Example 11, 2-(8H-thieno[3′,2′:3,4]pyrrolo[1,2-c]imidazol-8-yl)ethanol]"
0.106,,"OC(CC1c2cscc2-c2cncn21)C1CCCCC1 (stereo not drawn) [Example 12, 1-cyclohexyl-2-(5H-thieno[3′,4′:3,4]pyrrolo[1,2-c]imidazol-5-yl)ethanol]"
5.26,,"CC(C)(C)C1c2sccc2-c2cncn21 (stereo not drawn) [Example 23, 8-(tert-butyl)-8H-thieno[3′,2′:3,4]pyrrolo[1,2-c]imidazole]"
1.03,,"CC(C)CC1c2sccc2-c2cncn21 (stereo not drawn) [Example 24, 8-isobutyl-8H-thieno[3′,2′:3,4]pyrrolo[1,2-c]imidazole]"
8.12,,"CC(C)C1c2sccc2-c2cncn21 (stereo not drawn) [Example 25, 8-isopropyl-8H-thieno[3,4]pyrrolo[1,5-a]imidazole]"
> 10,,c1cc2c(s1)C(CCN1CCOCC1)n1cncc1-2 (stereo not drawn) [Example 30]
> 10,,"c1cc2c(s1)C(CCN1CCCCC1)n1cncc1-2 (stereo not drawn) [Example 31, 8-(2-(piperidin-1-yl)ethyl)-8H-thieno[3′,2′:3,4]pyrrolo[1,2-c]imidazole]"
0.807,,"c1cc2c(s1)C(C1CCC1)n1cncc1-2 (stereo not drawn) [Example 32, 8-cyclobutyl-8-hydro-thieno[3,4]pyrrolo[1,5-a]imidazole]"
1.68,,"O[C@@H](C[C@@H]1c2sccc2-c2cncn21)C1CCC(F)(F)CC1 [Example 47, (1S)-1-(4,4-difluorocyclohexyl)-2-((R)-8H-thieno[3,4]pyrrolo[1,5-a]imidazol-8-yl)ethanol]"
> 10,,"c1ccc2c(C3CCC(C4c5sccc5-c5nccn54)CC3)ccnc2c1 (stereo not drawn) [Example 96, 5-(4-(quinolin-4-yl)cyclohexyl)-5H-thieno[3′,2′:3,4]pyrrolo[1,2-a]imidazole]"
